Results reported in US20050182025A1, “Amidinylphenyl compounds and their use as fungicides” (priority 2002, published 2005).

Tests used:
Type in all cases: in vivo
[1] = test system: Erysiphe graminis f. sp. tritici; assay: Test A: preventive spray on wheat seedlings, wheat powdery mildew, disease rating; conditions: wheat seedlings sprayed to run-off, inoculated the following day with Erysiphe graminis f. sp. tritici, rated after 7 days at 20° C.; test concentration not given
Outline: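 Preventive test: Erysiphe graminis f. sp. tritici spore dust applied one day after run-off spraying of seedlings with acetone/water/surfactant suspension, 200 ppm equating to 500 g/ha. Plants held 7 days at 20 °C; ratings give % disease control versus controls, 100 full, 0 none.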

Septoria nodorum = assay: Test C: preventive spray on wheat seedlings, Septoria glume blotch, disease rating; conditions: wheat seedlings sprayed to run-off, inoculated the following day with Septoria nodorum, 48 h saturated atmosphere then 9 days at 20° C.; test concentration not given
Outline: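 Preventive test: one day after spraying (to run-off; 200 ppm ≈ 500 g/ha, in acetone/water with 250 ppm surfactant), seedlings received a S. nodorum spore suspension. After 48 h in saturated air and 9 days in a growth chamber, both at 20° C., % disease control versus controls was scored.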

Puccinia recondita = assay: Test B: preventive spray on wheat seedlings, wheat leaf rust, disease rating; conditions: wheat seedlings sprayed to run-off, inoculated the following day with Puccinia recondita, 24 h saturated atmosphere then 6 days at 20° C.; test concentration not given
Outline: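 Preventive test: seedlings inoculated with Puccinia recondita one day after run-off spraying with test suspension (acetone/water, 250 ppm Trem 014; 200 ppm equals 500 g/ha). Rating after 24 h at 20° C in saturation plus 6 days in 20° C growth chamber; 0–100 scale versus controls.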

## CCCC(CCC(C)C)Oc1cc(C)c(N=CN(C)C)cc1C (stereo not drawn) [Compound 33]
[1]
  Test A disease control rating (100 = 100% disease control, 0 = no disease control relative to the controls): 95%
Septoria nodorum
  Test C disease control rating (100 = 100% disease control, 0 = no disease control relative to the controls): 0%
Puccinia recondita
  Test B disease control rating (100 = 100% disease control, 0 = no disease control relative to the controls): 100%

## CCN(C)C=Nc1cc(Cl)c(OCCC[Si](C)(C)C)cc1C [compound 54]
[1]
  Test A disease control rating (100 = 100% disease control, 0 = no disease control relative to the controls): 100%
Septoria nodorum
  Test C disease control rating (100 = 100% disease control, 0 = no disease control relative to the controls): 100%
Puccinia recondita
  Test B disease control rating (100 = 100% disease control, 0 = no disease control relative to the controls): 100%

## CCN(C)C(=S)Nc1cc(C)c(OCCCC(C)C)c(Cl)c1C [compound 137]
[1]
  Test A disease control rating (100 = 100% disease control, 0 = no disease control relative to the controls): 100%
Septoria nodorum
  Test C disease control rating (100 = 100% disease control, 0 = no disease control relative to the controls): 84%
Puccinia recondita
  Test B disease control rating (100 = 100% disease control, 0 = no disease control relative to the controls): 100%

## Cc1cc(OCC(=O)C(C)(C)C)c(C)cc1N=CN(C)C [Compound 4]
[1]
  Test A disease control rating (100 = 100% disease control, 0 = no disease control relative to the controls): 0%
Septoria nodorum
  Test C disease control rating (100 = 100% disease control, 0 = no disease control relative to the controls): 0%
Puccinia recondita
  Test B disease control rating (100 = 100% disease control, 0 = no disease control relative to the controls): 92%

## CC[Si](C)(CC)CCCOc1cc(C)c(N=CN(C)C)cc1C [Compound 53]
[1]
  Test A disease control rating (100 = 100% disease control, 0 = no disease control relative to the controls): 100%
Septoria nodorum
  Test C disease control rating (100 = 100% disease control, 0 = no disease control relative to the controls): 99%
Puccinia recondita
  Test B disease control rating (100 = 100% disease control, 0 = no disease control relative to the controls): 100%

## CCN(C)C(=S)Nc1cc(Cl)c(OCCCC(C)C)cc1C [compound 112]
[1]
  Test A disease control rating (100 = 100% disease control, 0 = no disease control relative to the controls): 95%
Septoria nodorum
  Test C disease control rating (100 = 100% disease control, 0 = no disease control relative to the controls): 99%
Puccinia recondita
  Test B disease control rating (100 = 100% disease control, 0 = no disease control relative to the controls): 99%

## Cc1cc(OCCCC(C)(C)O)c(C)cc1N=CN(C)C [Compound 45]
[1]
  Test A disease control rating (100 = 100% disease control, 0 = no disease control relative to the controls): 0%
Septoria nodorum
  Test C disease control rating (100 = 100% disease control, 0 = no disease control relative to the controls): 0%
Puccinia recondita
  Test B disease control rating (100 = 100% disease control, 0 = no disease control relative to the controls): 80%

## CCN(C)C(=S)Nc1cc(Cl)c(OCCC[Si](C)(C)CC)cc1C [compound 84]
[1]
  Test A disease control rating (100 = 100% disease control, 0 = no disease control relative to the controls): 100%
Septoria nodorum
  Test C disease control rating (100 = 100% disease control, 0 = no disease control relative to the controls): 100%
Puccinia recondita
  Test B disease control rating (100 = 100% disease control, 0 = no disease control relative to the controls): 100%

## CCCCC(CCC)Sc1cc(C)c(N=C(C)N(C)C)cc1C (stereo not drawn) [compound 142]
[1]
  Test A disease control rating (100 = 100% disease control, 0 = no disease control relative to the controls): 0%
Septoria nodorum
  Test C disease control rating (100 = 100% disease control, 0 = no disease control relative to the controls): 53%
Puccinia recondita
  Test B disease control rating (100 = 100% disease control, 0 = no disease control relative to the controls): 0%

## COC(CCCCOc1cc(C)c(N=CN(C)C)cc1C)(OC)OC [Compound 7]
[1]
  Test A disease control rating (100 = 100% disease control, 0 = no disease control relative to the controls): 0%
Septoria nodorum
  Test C disease control rating (100 = 100% disease control, 0 = no disease control relative to the controls): 0%
Puccinia recondita
  Test B disease control rating (100 = 100% disease control, 0 = no disease control relative to the controls): 0%

## CC(=Nc1cc(Cl)c(OCCC[Si](C)(C)C)cc1C)N(C)C [compound 173]
[1]
  Test A disease control rating (100 = 100% disease control, 0 = no disease control relative to the controls): 32%
Septoria nodorum
  Test C disease control rating (100 = 100% disease control, 0 = no disease control relative to the controls): 99%
Puccinia recondita
  Test B disease control rating (100 = 100% disease control, 0 = no disease control relative to the controls): 90%

## CCCCCOc1cc(C)c(N=CN(C)C)cc1C [Compound 19]
[1]
  Test A disease control rating (100 = 100% disease control, 0 = no disease control relative to the controls): 96%
Septoria nodorum
  Test C disease control rating (100 = 100% disease control, 0 = no disease control relative to the controls): 100%
Puccinia recondita
  Test B disease control rating (100 = 100% disease control, 0 = no disease control relative to the controls): 100%

## CCN(C)C(=S)Nc1cc(C)c(OCCC[Si](C)(C)C)cc1C [compound 164]
[1]
  Test A disease control rating (100 = 100% disease control, 0 = no disease control relative to the controls): 100%
Septoria nodorum
  Test C disease control rating (100 = 100% disease control, 0 = no disease control relative to the controls): 100%
Puccinia recondita
  Test B disease control rating (100 = 100% disease control, 0 = no disease control relative to the controls): 100%
